The values below come from ChEMBL document CHEMBL5154820 (Eur J Med Chem, 2022).

In data set [1] the test system is HeLa. The data set can be described thus: Induction of cell cycle arrest in human HeLa cells assessed as < 2N cells at 3 nM measured after 24 hrs by propidium iodide staining based flow cytometric analysis analysis ( Rvb = 9.32%). Format: functional. A general note: In flow cytometry, cells or beads pass a laser one at a time.
Data set [2] relates to HeLa. The data set can be described thus: Induction of cell cycle arrest in human HeLa cells assessed as 4N cells at 6 nM measured after 24 hrs by propidium iodide staining based flow cytometric analysis analysis ( Rvb = 17.1%). Format: functional.
Data set [3] concerns HeLa. The data set can be described thus: Induction of cell cycle arrest in human HeLa cells assessed as accumulation of cells at G2/M phase at 3 nM after 24 hrs by propidium iodide staining based flow cytometric analysis (reference value: 17.1%). It is filed as functional.
For data set [4], the system named is HeLa. As to the kind of experiment: Induction of apoptosis in human HeLa cells assessed as viable cells at 3 nM measured after 24 hrs by Annexin V-FITC/7-AAD staining based flow cytometric analysis (reference value: 75.5%). Format: functional. The settings on record: read-out: Activity.
Data set [5] deals with HeLa. The data set can be described thus: Induction of apoptosis in human HeLa cells assessed as necrotic cells at 6 nM measured after 24 hrs by Annexin V-FITC/7-AAD staining based flow cytometric analysis (reference value: 0.45%). It is filed as functional.
The test system of data set [6] is HeLa. The data set can be described thus: Antimigratory activity against human HeLa cells at 1.5 nM measured after 24 hrs by scratch wound healing based fluorescence inverted microscopic analysis. It is filed as functional.
The target in data set [7] is Tubulin beta (Homo sapiens) (UniProt P68371+Q9H4B7+Q13509+P04350+Q3ZCM7+P07437+Q13885+Q9BVA1+Q9BUF5+A6NNZ2). The data set can be described thus: Binding affinity to beta-tubulin colchicine binding site in human HeLa cells assessed as inhibition of EBI-beta-tubulin adduct formation measured at 1 to 100 uM incubated for 2 hrs followed by addition of EBI measured after 1.5 hrs by EBI competition based Western blotting analysis. It is filed as cell-based. The settings on record: dose 1-100 µM, time 3.5 hrs, DDE = dose-dependent effect. (In general: Immunoblotting shows a protein as a band on a membrane.)

Data set [8] deals with HeLa. The data set can be described thus: Induction of cell cycle arrest in human HeLa cells assessed as < 2N cells at 0.4 uM measured after 24 hrs by propidium iodide staining based flow cytometric analysis analysis ( Rvb = 7.07%). It is filed as functional.
In data set [9] the test system is HeLa. The data set can be described thus: Induction of cell cycle arrest in human HeLa cells assessed as 2N cells at 0.1 uM measured after 24 hrs by propidium iodide staining based flow cytometric analysis analysis ( Rvb = 47.4%). It is filed as functional.
The subject of data set [10] is HeLa. The data set can be described thus: Induction of cell cycle arrest in human HeLa cells assessed as 2N cells at 0.2 uM measured after 24 hrs by propidium iodide staining based flow cytometric analysis analysis ( Rvb = 47.4%). It is filed as functional.
Data set [11] concerns HeLa. The data set can be described thus: Induction of cell cycle arrest in human HeLa cells assessed as S-phase at 0.2 uM measured after 24 hrs by propidium iodide staining based flow cytometric analysis analysis ( Rvb = 15.5%). It is filed as functional.
Data set [12] relates to HeLa. As to the kind of experiment: Induction of cell cycle arrest in human HeLa cells assessed as S-phase at 0.4 uM measured after 24 hrs by propidium iodide staining based flow cytometric analysis analysis ( Rvb = 15.5%). Format: functional.
In data set [13] the test system is HeLa. The data set can be described thus: Induction of cell cycle arrest in human HeLa cells assessed as accumulation of cells at G2/M phase at 0.2 uM after 24 hrs by propidium iodide staining based flow cytometric analysis (reference value: 20.3%). Format: functional.
The test system of data set [14] is HeLa. As to the kind of experiment: Induction of cell cycle arrest in human HeLa cells assessed as accumulation of cells at G2/M phase at 0.4 uM after 24 hrs by propidium iodide staining based flow cytometric analysis (reference value: 20.3%). Format: functional.
For data set [15], the system named is HeLa. As to the kind of experiment: Induction of apoptosis in human HeLa cells assessed as viable cells at 0.2 uM measured after 24 hrs by Annexin V-FITC/7-AAD staining based flow cytometric analysis (reference value: 70.1%). It is filed as functional. The conditions noted are these: read-out: Activity.
Data set [16] has as its system HeLa. The data set can be described thus: Induction of apoptosis in human HeLa cells assessed as late apoptotic cells at 0.4 uM measured after 24 hrs by Annexin V-FITC/7-AAD staining based flow cytometric analysis (reference value: 8.51%). Format: functional.
The subject of data set [17] is HeLa. The data set can be described thus: Induction of apoptosis in human HeLa cells assessed as necrotic cells at 0.2 uM measured after 24 hrs by Annexin V-FITC/7-AAD staining based flow cytometric analysis (reference value: 0.56%). Format: functional.
The nature of data set [18]: Acute toxicity in ICR female mouse assessed as body weight gain at 100 to 1000 mg/kg, ip measured daily for 14 days. It is filed as organism-based. The settings on record: in vivo, 336 h, dose 100-1000 mg/kg, time 14 day.
Data set [19] is described as follows: Acute toxicity against ICR mouse assessed as morphological changes in lung at 1000 mg/kg, ip measured after 14 days by H and E staining method. It is filed as organism-based. The conditions noted are these: in vivo, 336 h, time 14 day.
Data set [20] is described as follows: Acute toxicity against ICR mouse assessed as regeneration of renal tubule in kidney at 1000 mg/kg, ip measured after 14 days by H and E staining method. Format: organism-based. The conditions noted are these: in vivo, 336 h, time 14 day.
The nature of data set [21]: Acute toxicity against ICR mouse assessed as inflammatory cell infiltration in kidney at 1000 mg/kg, ip measured after 14 days by H and E staining method. It is filed as organism-based. The settings on record: in vivo, 336 h, time 14 day.
Data set [22] has as its system HeLa. The data set can be described thus: Antitumor activity against human HeLa cells xenografted in BABL/c mouse assessed as tumor growth inhibition at 30 mg/kg, ip administered daily for 21 days relative to control. It is filed as functional. The conditions noted are these: 504 h, time 21 day, read-out: TGI. Background: A xenograft is tissue or cells of one species grown in another, often human tumour cells in immunodeficient mice.

Data set [23] relates to HeLa. The data set can be described thus: Antitumour activity against human HeLa cells xenografted in BABL/c mouse assessed as reduction in tumor weight at 60 mg/kg, ip administered daily for 21 days ( Rvb = 3.36 g). Format: functional. The settings on record: time 21 day.
Data set [24] can be described thus: Nephrotoxicity in BABL/c mouse assessed as increased uric acid level at 30 mg/kg, ip administered daily for 21 days relative to vehicle. Format: toxicity, organism-based. The conditions noted are these: in vivo, 504 h, time 21 day.
Data set [25] is described as follows: Nephrotoxicity in BABL/c mouse assessed as increased uric acid level at 30 mg/kg, ip administered daily for 21 days followed by addition of 3 mg/kg DDP for every 2 days relative to vehicle. It is filed as toxicity, organism-based. The conditions noted are these: in vivo, 504 h, time 21 day.
A short description of data set [26]: Nephrotoxicity in BABL/c mouse assessed as increased urea nitrogen level at 60 mg/kg, ip administered daily for 21 days relative to vehicle. Format: toxicity, organism-based. The conditions noted are these: in vivo, 504 h, time 21 day.
The nature of data set [27]: Toxicity against BABL/c mouse assessed as morphological changes in heart at 30 to 60 mg/kg, ip administered daily for 21 days by H and E staining method. Format: organism-based. The settings on record: in vivo, 504 h, dose 30-60 mg/kg, time 21 day.
The nature of data set [28]: Toxicity against BABL/c mouse assessed as morphological changes in heart at 30 mg/kg, ip administered daily for 21 days followed by addition of 3 mg/kg DDP for every 2 days by H and E staining method. Format: organism-based. The conditions noted are these: in vivo, 504 h, time 21 day.
The nature of data set [29]: Toxicity against BABL/c mouse assessed as morphological changes in kidney at 30 mg/kg, ip administered daily for 21 days followed by addition of 3 mg/kg DDP for every 2 days by H and E staining method. It is filed as organism-based. The settings on record: in vivo, 504 h, time 21 day.
The nature of data set [30]: Toxicity against BABL/c mouse assessed as morphological changes in liver at 30 mg/kg, ip administered daily for 21 days followed by addition of 3 mg/kg DDP for every 2 days by H and E staining method. It is filed as organism-based. The settings on record: in vivo, 504 h, time 21 day.
Data set [31] is described as follows: Toxicity against BABL/c mouse assessed as morphological changes in spleen at 30 to 60 mg/kg, ip administered daily for 21 days by H and E staining method. It is filed as organism-based. The conditions noted are these: in vivo, 504 h, dose 30-60 mg/kg, time 21 day.

Structures are written as SMILES.

Regarding `COc1ccc(/C=C\c2cc(OC)c(OC)c(OC)c2)cc1O` [COMBRETASTATIN A4], the Activity is listed as 7.77% in the data set with HeLa [1]; 35.3% with HeLa [2]; 28.2% in the data set on HeLa [3]; 0.62% in the data set with HeLa [5]; 25% with HeLa [6]. The viability at 0.003 µM with HeLa [4] worked out at 44.7%.
For the compound `CCOc1ccc(-c2cncnc2-c2cc(OC)c(OC)c(OC)c2)cc1Cl`, the Activity result is “Dde” in [7]; 0.26% in the data set on HeLa [8]; 22.7% in the data set on HeLa [9]; 0.82% in the data set with HeLa [10]; 16.6% with HeLa [11]; 11.4% in the data set on HeLa [12]. For the same compound, the Activity with HeLa [13] is on record as 47.6%; in the data set on HeLa [14], 71.7%; in the data set with HeLa [16], 3.98%; with HeLa [17] it was 0.52%; in [18], 3.88 g; in data set [19], “Non-Toxic”. Also, the Activity entry is reported as “Non-Toxic” in [20]; “Non-Toxic” in [21]; 1.42 g in the data set with HeLa [23]; 21% in data set [24]; 16% in data set [25]; 1.3% in [26]. The Activity entry in data set [27], in data set [28], in data set [29], in data set [30] and in data set [31] was “Non-Toxic” each time. In the data set on HeLa [15], the viability at 0.2 µM stood at 26.4%. Also, the inhibition in vivo at 30 mg/kg with HeLa [22] turned out to be 35%.
